Series [1] has as its system Rattus norvegicus. Conditions: for NOEL / LOEL: Hershberger; for LEL: uterotrophic, Active.
Series [2] relates to Oryctolagus sp. Conditions: for LD50: acute, dermal; for NOAEL: reproduction developmental, duration: 21 days, oral, gavage.
Series [3] concerns Rattus norvegicus. Conditions: for LD50 / NOAEL: oral.
Series [4] relates to Rattus norvegicus. Conditions: subchronic; duration: 13 weeks; oral; diet; F; Fischer 344; Body Weight Changes: decrease + Histopathology: Bone marrow-Reticulum-cell hyperplasia Bone marrow-Myeloid depletion.
Setting [5] is: duration: 3 days, injection, subcutaneous.
[6] abbreviates: duration: 10 days, oral, gavage, Sprague-Dawley, active + Antiandrogenic + anti-androgenic.
Where [7] appears, read: duration: 12 days, injection, subcutaneous, Wistar, active + Androgenic + androgenic.

The record followed here is EPA's ToxValDB 9.5.

Several values for one entry are separate records, joined by “and”; a condition that tells them apart may be missing. Identical values can stand only once. Bounds are passed on as bounds.

Take `Nc1ncn[nH]1` [Amitrole]: the NOEL in series [1] (duration: 10 days, oral, gavage, Wistar, inactive + Negative + Negative + anti-androgenic + negative on gonad/AST / significant thyroid effects beginning at 25 / increased SV wt …) was 125 mg/kg-day.

As for `CCCCCCCCCc1cc2ccccc2c(S(=O)(=O)O)c1CCCCCCCCC` [Dinonylnaphthalenesulfonic acid], the LD50 in series [2] (New Zealand) was above 2000 mg/kg; in series [3] (acute, gavage, Sprague-Dawley), above 5000 mg/kg. This compound also registered an LC50 in series [3] (acute, Inhalation, Wistar) above 200 µg/mL.

With `O=S(=O)([O-])c1ccc(Nc2nc(Nc3ccc(/C=C/c4ccc(Nc5nc(Nc6ccc(S(=O)(=O)[O-])cc6)nc(N(CCO)CCO)n5)cc4S(=O)(=O)[O-])c(S(=O)(=O)[O-])c3)nc(N(CCO)CCO)n2)cc1.[Na+].[Na+].[Na+].[Na+]` [C.I. Fluorescent Brightener 220], the NOAEL in series [2] (F, New Zealand) was 100 mg/kg-day; in series [2] (New Zealand, generation: F1) it was 300 mg/kg-day and 800 mg/kg-day; in series [3] (chronic, duration: 104 weeks, diet, F, Wistar), 780 mg/kg-day; in series [3] (chronic, duration: 104 weeks, diet, M, Wistar) it was 780 mg/kg-day; in series [3] (reproduction developmental, duration: 9 months, gavage, Sprague-Dawley, generation: F1), 1000 mg/kg-day; in series [3] (reproduction developmental, duration: 9 months, gavage, Sprague-Dawley, generation: F2) it was 1000 mg/kg-day. Further, the NOAEL came out at 1000 mg/kg-day in series [3] (reproduction developmental, duration: 13 days, gavage, F, Sprague-Dawley); 1000 mg/kg-day in series [3] (reproduction developmental, duration: 13 days, gavage, Sprague-Dawley, generation: F1); 1000 mg/kg-day in series [3] (reproduction developmental, gavage, Sprague-Dawley, generation: F0); 1000 mg/kg-day in series [3] (reproduction developmental, gavage, Sprague-Dawley, generation: F1); 500 mg/kg-day in series [3] (subchronic, duration: 10 weeks, gavage, F, Wistar); 500 mg/kg-day in series [3] (subchronic, duration: 10 weeks, gavage, M, Wistar). Besides, the LD50 in series [3] (acute, gavage) is above 15000 mg/kg.

Regarding `CCCCC(CC)COC(=O)c1ccc(O)cc1` (stereo not given) [2-Ethylhexyl p-hydroxybenzoate], in series [1] (setting [5]), the LEL was 200 mg/kg-day and 199 mg/kg-day.

On to `CCCCCCCCC(=O)OCC(CC)(COC(=O)CCCCCCCC)COC(=O)CCCCCCCC` [Trimethylolpropane trinonanoate], for which the LD50 in series [2] was above 2000 mg/kg; in series [3] (acute, gavage, Crl:CD(SD)), above 2000 mg/kg; in series [3] (acute, gavage, Sherman Wistar), above 5000 mg/kg; in series [3] (acute, gavage, Sprague-Dawley), above 2000 mg/kg; in series [3] (acute, gavage, Wistar), above 2000 mg/kg.

Take `CCCC[N+](CC)(CCCC)CCCCCC[N+](CC)(CCCC)CCCC.[OH-].[OH-]`: the LD50 was determined as 22.4 mg/kg in series [2] (New Zealand) and 350 mg/kg in series [3] (acute, gavage, Sprague-Dawley).

With `CC(C)[C@H](C(=O)O[C@H](C#N)c1cccc(Oc2ccccc2)c1)c1ccc(Cl)cc1` [Esfenvalerate], the NOEL in series [1] (duration: 10 days, oral, gavage, Sprague-Dawley, inactive + Negative + Negative + neither + negative) came out at 9 mg/kg-day.

For `CC#C[C@]1(O)CC[C@H]2[C@@H]3CCC4=CC(=O)CCC4=C3[C@@H](c3ccc(N(C)C)cc3)C[C@@]21C` [Mifepristone], in series [1] (setting [6]), the LOEL amounted to 25 mg/kg-day and the NOEL came to 10 mg/kg-day. In series [1] (duration: 4 days, injection, intraperitoneal), the LEL was 100 mg/kg-day.

With `C[C@]12C=CC(=O)C[C@@H]1CC[C@@H]1[C@@H]2CC[C@@]2(C)[C@H]1CC[C@]2(C)O` [Methyl-1-testosterone], the LOEL in series [1] (duration: 10 days, injection, subcutaneous, Wistar, active + Androgenic + androgenic) came to 1 mg/kg-day. In series [1] (setting [7]), the LOEL was 0.3 mg/kg-day and the NOEL worked out at 0.03 mg/kg-day.

`CC(C)CCCCCCCOP(=S)([S-])OCCCCCCCC(C)C.CC(C)CCCCCCCOP(=S)([S-])OCCCCCCCC(C)C.[Zn+2]` gave an LD50 in series [2] (New Zealand) above 8000 mg/kg.

Consider `Cc1c2ccccc2c(C)c2c1ccc1ccccc12` [7,12-Dimethylbenz(a)anthracene], for which the LEL in series [1] (duration: 1 days, injection, subcutaneous) came out at 15 mg/kg-day.

As to `CCCSP(=O)(OCC)SCCC` [Ethoprop], in series [1] (duration: 10 days, oral, gavage, Sprague-Dawley, active + Negative + Antiandrogenic + anti-androgenic + decrease in serum testosterone, decrease in epididymal wt at 6 mg/kg / thyroid …), the NOEL is 8 mg/kg-day.

Compound `O=c1oc2cc(O)ccc2c2oc3cc(O)ccc3c12` [Coumestrol] yielded an LEL in series [1] (setting [5]) of 1 mg/day.

For the compound `CC(C)(C)NC(=O)[C@H]1CC[C@H]2[C@@H]3CC[C@H]4NC(=O)C=C[C@]4(C)[C@H]3CC[C@]12C` [Finasteride], the LOEL in series [1] (duration: 5 days, oral, gavage, Sprague-Dawley, active + Antiandrogenic + anti-androgenic + decreased age at PPS at 20mg/kg, increased at 80 mg/kg (with 7.8% increased liver wt at high …) is 20 mg/kg-day and 25 mg/kg-day; in series [1] (duration: 7 days, oral, gavage, Sprague-Dawley, active + Antiandrogenic + anti-androgenic + decreased age at PPS at 20mg/kg, increased at 80 mg/kg (with 7.8% increased liver wt at high …) it was 20 mg/kg-day and 25 mg/kg-day.

As for `CCCCCCC(=O)O[C@H]1CC[C@H]2[C@@H]3CCC4=CC(=O)CC[C@]4(C)[C@H]3CC[C@]12C` [Testosterone enanthate], the LOEL in series [1] (duration: 10 days, oral, gavage, Sprague-Dawley, active + Androgenic + Negative + androgenic) came to 50 mg/kg-day.

With `C[C@]12CC[C@@H]3c4ccc(OC(=O)c5ccccc5)cc4CC[C@H]3[C@@H]1CC[C@@H]2O` [Estradiol benzoate], the LOEL in series [1] (duration: 7 days, injection, subcutaneous, Wistar, active + Androgenic + androgenic) was 0.0025 mg/kg-day.

`C[C@H]1CCC[C@@H](O)CCC/C=C/c2cc(O)cc(O)c2C(=O)O1` [beta-Zearalenol]: the LEL in series [1] (duration: 3 days, oral) was found to be 0.8 mg/day.

As to `CCOC(=O)c1ccc(O)cc1` [Ethylparaben], the LEL in series [1] (setting [5]) turned out to be 180 mg/kg-day.

On to `O=C1O[C@H]([C@@H](O)CO)C(O)=C1O` [L-Ascorbic acid], for which the LEL in series [1] (duration: 20 days, injection, subcutaneous) turned out to be 25 mg/kg-day. Moreover, in series [4], the NOEL was below 2400 mg/kg-day.

In turn, `C[C@H]1CCC[C@@H](O)CCCCCc2cc(O)cc(O)c2C(=O)O1` [Taleranol] had an LEL in series [1] (duration: 3 days, oral) of 0.06 mg/day.

As a reminder, the LD50 is the dose expected to kill half of the subjects tested. A lower LD50 goes with a more toxic substance. By LC50 is commonly meant the concentration that kills 50% of the test population. Usually NOAEL stands for the highest dose or exposure tested at which no adverse effect was seen.
